Test results: ChEMBL document CHEMBL3608264, “Novel antibacterial active quinolone-fluoroquinolone conjugates and 2D-QSAR studies” (2015)
Values after ≈ are worked out from the molar mass of the structure shown.

Legend:
Salmonella typhimurium = assay: Antimicrobial activity against Salmonella typhimurium ATCC 19430 incubated for 18 hrs by agar dilution method; type: functional, Salmonella enterica subsp. enterica serovar Typhimurium; conditions: Salmonella enterica, ATCC 19430, 18 h
Staphylococcus aureus = assay: Antimicrobial activity against Staphylococcus aureus ATCC 25923 incubated for 18 hrs by agar dilution method; type: functional; conditions: ATCC 25923, 18 h
Streptococcus pyogenes = assay: Antimicrobial activity against Streptococcus pyogenes ATCC 19615 incubated for 18 hrs by agar dilution method; type: functional; conditions: ATCC 19615, 18 h
Pseudomonas aeruginosa = assay: Antimicrobial activity against Pseudomonas aeruginosa ATCC 27853 incubated for 18 hrs by agar dilution method; type: functional; conditions: ATCC 27853, 18 h

Structure (SMILES) | MIC (Salmonella typhimurium) [µM] | MIC (Staphylococcus aureus) [µM] | MIC (Streptococcus pyogenes) [µM] | MIC (Pseudomonas aeruginosa) [µM]
CCn1cc(C(=O)NCC(=O)N2CCN(c3cc4c(cc3F)c(=O)c(C(=O)O)cn4C3CC3)CC2)c(=O)c2cc3c(cc21)OCO3 | 7.6 (≈ 4.8 µg/mL) |  |  | 
CCn1cc(C(=O)NCCC(=O)N2CCN(c3cc4c(cc3F)c(=O)c(C(=O)O)cn4C3CC3)CC2)c(=O)c2cc3c(cc21)OCO3 | 7.4 (≈ 4.78 µg/mL) | 1940 (≈ 1250 µg/mL) | 1940 (≈ 1250 µg/mL) | 1940 (≈ 1250 µg/mL)
CCn1cc(C(=O)NCCCC(=O)N2CCN(c3cc4c(cc3F)c(=O)c(C(=O)O)cn4C3CC3)CC2)c(=O)c2cc3c(cc21)OCO3 | 59.1 (≈ 39 µg/mL) | 1890 (≈ 1250 µg/mL) | 1890 (≈ 1250 µg/mL) | 1890 (≈ 1250 µg/mL)
CC[C@H](C)[C@H](NC(=O)c1cn(CC)c2cc3c(cc2c1=O)OCO3)C(=O)N1CCN(c2cc3c(cc2F)c(=O)c(C(=O)O)cn3C2CC2)CC1 | 909 (≈ 625 µg/mL) | 454 (≈ 313 µg/mL) | 1820 (≈ 1250 µg/mL) | 1820 (≈ 1250 µg/mL)
CCn1cc(C(=O)N[C@@H](Cc2ccccc2)C(=O)N2CCN(c3cc4c(cc3F)c(=O)c(C(=O)O)cn4C3CC3)CC2)c(=O)c2cc3c(cc21)OCO3 | 433 (≈ 313 µg/mL) | 1730 (≈ 1250 µg/mL) | 1730 (≈ 1250 µg/mL) | 1730 (≈ 1250 µg/mL)
CCn1cc(C(=O)N[C@@H](Cc2c[nH]c3ccccc23)C(=O)N2CCN(c3cc4c(cc3F)c(=O)c(C(=O)O)cn4C3CC3)CC2)c(=O)c2cc3c(cc21)OCO3 | 25.6 (≈ 19.5 µg/mL) | 51.3 (≈ 39 µg/mL) | 411 (≈ 313 µg/mL) | 411 (≈ 313 µg/mL)
CCn1cc(C(=O)O)c(=O)c2cc(F)c(N3CCN(C(=O)CNC(=O)c4cn(CC)c5nc(C)ccc5c4=O)CC3)cc21 | 2120 (≈ 1250 µg/mL) | 33 (≈ 19.5 µg/mL) |  | 
CCn1cc(C(=O)O)c(=O)c2cc(F)c(N3CCN(C(=O)CCNC(=O)c4cn(CC)c5nc(C)ccc5c4=O)CC3)cc21 | 2070 (≈ 1250 µg/mL) | 2070 (≈ 1250 µg/mL) | 2070 (≈ 1250 µg/mL) | 2070 (≈ 1250 µg/mL)
CCn1cc(C(=O)O)c(=O)c2cc(F)c(N3CCN(C(=O)CCCNC(=O)c4cn(CC)c5nc(C)ccc5c4=O)CC3)cc21 | 505 (≈ 312 µg/mL) | 505 (≈ 312 µg/mL) | 1010 (≈ 625 µg/mL) | 505 (≈ 312 µg/mL)
CC[C@H](C)[C@H](NC(=O)c1cn(CC)c2nc(C)ccc2c1=O)C(=O)N1CCN(c2cc3c(cc2F)c(=O)c(C(=O)O)cn3CC)CC1 | 1930 (≈ 1250 µg/mL) | 1930 (≈ 1250 µg/mL) | 1930 (≈ 1250 µg/mL) | 1930 (≈ 1250 µg/mL)
CCn1cc(C(=O)O)c(=O)c2cc(F)c(N3CCN(C(=O)[C@H](Cc4ccccc4)NC(=O)c4cn(CC)c5nc(C)ccc5c4=O)CC3)cc21 | 115 (≈ 78.1 µg/mL) | 28.6 (≈ 19.5 µg/mL) | 459 (≈ 313 µg/mL) | 918 (≈ 625 µg/mL)
CCn1cc(C(=O)O)c(=O)c2cc(F)c(N3CCN(C(=O)[C@H](Cc4c[nH]c5ccccc45)NC(=O)c4cn(CC)c5nc(C)ccc5c4=O)CC3)cc21 | 868 (≈ 625 µg/mL) | 1740 (≈ 1250 µg/mL) | 1740 (≈ 1250 µg/mL) | 1740 (≈ 1250 µg/mL)
CCn1cc(C(=O)O)c(=O)c2cc(F)c(N3CCN(C(=O)CNC(=O)c4cn(CC)c5cc6c(cc5c4=O)OCO6)CC3)cc21 | 2020 (≈ 1250 µg/mL) |  |  | 
CCn1cc(C(=O)O)c(=O)c2cc(F)c(N3CCN(C(=O)CCNC(=O)c4cn(CC)c5cc6c(cc5c4=O)OCO6)CC3)cc21 | 61.6 (≈ 39 µg/mL) | 30.8 (≈ 19.5 µg/mL) | 247 (≈ 156 µg/mL) | 493 (≈ 313 µg/mL)
CCn1cc(C(=O)O)c(=O)c2cc(F)c(N3CCN(C(=O)CCCNC(=O)c4cn(CC)c5cc6c(cc5c4=O)OCO6)CC3)cc21 |  | 482 (≈ 312 µg/mL) | 965 (≈ 625 µg/mL) | 
CC[C@H](C)[C@H](NC(=O)c1cn(CC)c2cc3c(cc2c1=O)OCO3)C(=O)N1CCN(c2cc3c(cc2F)c(=O)c(C(=O)O)cn3CC)CC1 | 1850 (≈ 1250 µg/mL) | 1850 (≈ 1250 µg/mL) | 1850 (≈ 1250 µg/mL) | 462 (≈ 313 µg/mL)
CCn1cc(C(=O)O)c(=O)c2cc(F)c(N3CCN(C(=O)[C@H](Cc4ccccc4)NC(=O)c4cn(CC)c5cc6c(cc5c4=O)OCO6)CC3)cc21 | 1760 (≈ 1250 µg/mL) | 1760 (≈ 1250 µg/mL) | 1760 (≈ 1250 µg/mL) | 1760 (≈ 1250 µg/mL)
CCn1cc(C(=O)O)c(=O)c2cc(F)c(N3CCN(C(=O)[C@H](Cc4c[nH]c5ccccc45)NC(=O)c4cn(CC)c5cc6c(cc5c4=O)OCO6)CC3)cc21 | 1670 (≈ 1250 µg/mL) | 1670 (≈ 1250 µg/mL) | 1670 (≈ 1250 µg/mL) | 1670 (≈ 1250 µg/mL)
CCn1cc(C(=O)NCC(=O)N2CCN(c3cc4c(cc3F)c(=O)c(C(=O)O)cn4C3CC3)CC2)c(=O)c2ccc(C)nc21 | 64.7 (≈ 39 µg/mL) |  |  | 
CCn1cc(C(=O)NCCC(=O)N2CCN(c3cc4c(cc3F)c(=O)c(C(=O)O)cn4C3CC3)CC2)c(=O)c2ccc(C)nc21 | 15.7 (≈ 9.68 µg/mL) | 1010 (≈ 625 µg/mL) | 7.8 (≈ 4.81 µg/mL) | 2030 (≈ 1250 µg/mL)
CC[C@H](C)[C@H](NC(=O)c1cn(CC)c2nc(C)ccc2c1=O)C(=O)N1CCN(c2cc3c(cc2F)c(=O)c(C(=O)O)cn3C2CC2)CC1 | 1900 (≈ 1250 µg/mL) | 1900 (≈ 1250 µg/mL) | 1900 (≈ 1250 µg/mL) | 1900 (≈ 1250 µg/mL)
CCn1cc(C(=O)N[C@@H](Cc2ccccc2)C(=O)N2CCN(c3cc4c(cc3F)c(=O)c(C(=O)O)cn4C3CC3)CC2)c(=O)c2ccc(C)nc21 | 1800 (≈ 1250 µg/mL) | 1800 (≈ 1250 µg/mL) | 1800 (≈ 1250 µg/mL) | 1800 (≈ 1250 µg/mL)
CCn1cc(C(=O)N[C@@H](Cc2c[nH]c3ccccc23)C(=O)N2CCN(c3cc4c(cc3F)c(=O)c(C(=O)O)cn4C3CC3)CC2)c(=O)c2ccc(C)nc21 | 427 (≈ 312 µg/mL) | 3.3 (≈ 2.41 µg/mL) | 854 (≈ 625 µg/mL) | 1710 (≈ 1250 µg/mL)
O=C(O)c1cn(C2CC2)c2cc(N3CCNCC3)c(F)cc2c1=O [CIPROFLOXACIN] | 9.2 (≈ 3.05 µg/mL) | 74.6 (≈ 24.7 µg/mL) | 2390 (≈ 793 µg/mL) | 74.6 (≈ 24.7 µg/mL)
CCn1cc(C(=O)O)c(=O)c2ccc(C)nc21 [NALIDIXIC ACID] | 7.2 (≈ 1.67 µg/mL) | 3770 (≈ 876 µg/mL) | 3770 (≈ 876 µg/mL) | 14.5 (≈ 3.37 µg/mL)
CCn1cc(C(=O)O)c(=O)c2cc(F)c(N3CCNCC3)cc21 [NORFLOXACIN] | 10.3 (≈ 3.29 µg/mL) | 1350 (≈ 430 µg/mL) | 1350 (≈ 430 µg/mL) | 336 (≈ 107 µg/mL)
CCn1cc(C(=O)O)c(=O)c2cc3c(cc21)OCO3 [OXOLINIC ACID] | 7.5 (≈ 1.96 µg/mL) | 3910 (≈ 1020 µg/mL) | 1960 (≈ 511 µg/mL) | 15 (≈ 3.92 µg/mL)
